Laboratory results published in PMC8333053, “Synthesis and biological screening of new thiadiazolopyrimidine-based polycyclic compounds” (Scientific Reports, 2021).
In brackets after ≈: the same amount, converted by molar mass.

Experiments:
Type in all cases: cell-based
Bacillus cereus UW85 = experiment: Antibacterial MIC, two-fold serial dilution; settings: Gram +ve bacteria, LB broth, 37°C, 24 h, visual (no turbidity), read-out: MIC B. cereus
Description: (§1) The antimicrobial activity of the synthesized thiadiazolopyrimidine compounds was studied toward diverse pathogenic strains, such as gram-positive bacteria (Staphylococcus aureus ATCC 29213 and Bacillus cereus UW85), gram-negative bacteria (Escherichia coli ATCC 12435 and Pseudomonas aeruginosa ATCC 29260), and fungi (Candida albicans and Aspergillus fumigatus 293). The assessment was performed through the two-fold dilution technique using Ampicillin (antibacterial) and Fluconazole (antifungal) as the reference drugs[28],[29]. The minimal inhibitory concentration (MICs, µg/mL) of the synthesized derivatives for prohibiting microbial growth was determined through the visual detection (no turbidity) technique.
(§2) The synthesized thiadiazolopyrimidine-based compounds were evaluated and adopted for antibacterial and antifungal effectiveness using the approved procedure[38],[39].
(§3) Minimal inhibitory concentrations (MICs) were determined by serial dilution technique using 96-multiwell microtiter plates. The investigated compounds were dissolved in DMSO 100% to prepare stock solutions of 5000 µg/mL. Two-fold serial dilutions of the dissolved compounds were performed in LB broth providing eight different concentrations (1250, 625, 312.5, 156, 78, 39, 19.5 µg/mL). Overnight cultures of microorganisms were diluted to 1 ×10^6 CFU/mL in LB broth, and 20 mL of the diluted cultures were added to the test solutions (50 mL) in the wells (one well per concentration per bacterial strain). The plates were incubated at 37°C for 24 h. MIC was detected visually as the least concentration inhibiting bacterial growth (no turbidity) and the activity of the tested compounds was estimated in comparison to ampicillin.

[1] = system: Escherichia coli ATCC 12435; experiment: Antibacterial MIC, two-fold serial dilution; settings: ATCC12435, Gram −ve bacteria, LB broth, 37°C, 24 h, visual (no turbidity)
Description: as §1, §2, §3

[2] = system: Pseudomonas aeruginosa ATCC 29260; experiment: Antibacterial MIC, two-fold serial dilution; settings: ATCC29260, Gram −ve bacteria, LB broth, 37°C, 24 h, visual (no turbidity), read-out: MIC P. aeruginosa
Description: as §1, §2, §3

[3] = system: Staphylococcus aureus ATCC 29213; experiment: Antibacterial MIC, two-fold serial dilution; settings: ATCC29213, Gram +ve bacteria, LB broth, 37°C, 24 h, visual (no turbidity), read-out: MIC S. aureus
Description: as §1, §2, §3

[4] = system: Aspergillus fumigatus 293; experiment: Antifungal MIC, two-fold serial dilution; settings: Fungi, glucose minimal medium, 30°C, 48 h, visual (no turbidity)
Description: as §1, §2
(§4) Minimal inhibitory concentrations (MICs) were determined by serial dilution technique using 96-multiwell microtiter plates. The investigated compounds were dissolved in DMSO 100% to prepare stock solutions of 5000 µg/mL. Two-fold serial dilutions of the dissolved compounds were performed in glucose minimal medium providing eight different concentrations (1250, 625, 312.5, 156, 78, 39, 19.5 µg/mL). The microorganisms were diluted to 1 ×10^3 SFU/mL in glucose minimal medium, and 20 µL of the diluted culture was added to the test solutions (50 µL) in the wells (one well per concentration). The plates were incubated at 30°C for 48 h. MIC was detected visually as the least concentration inhibiting fungal growth (no turbidity) and the activity of the tested compounds was estimated in comparison to fluconazole.

Candida albicans = experiment: Antifungal MIC, two-fold serial dilution; settings: Fungi, glucose minimal medium, 30°C, 48 h, visual (no turbidity)
Description: as §1, §2, §4

[5] = system: Chromobacterium violaceum (ATCC 12472); experiment: Antiquorum-sensing assay (violacein pigment inhibition); settings: Chromobacterium violaceum, ATCC12472, 48 h, read-out: Diameter of quorum-sensing inhibition C. violaceum
From the text: The synthesized thiadiazolopyrimidine-based compounds were screened for their antiquorum-sensing (anti-QS) inhibition activity by the Chromobacterium violaceum (ATCC 12472) technique using catechin as the standard compound[28]–[30]. The QS technique of C. violaceum was remarked by the detection of violacein (violet pigment)[31],[32]. Meanwhile, the reactivity of the synthesized thiadiazolopyrimidine-containing derivatives as drugs depends on their efficiency to inhibit the liberation of violacein during the QS technique. The QS inhibition was determined by the following equation: QS inhibition (mm) = (r2 − r1), where r1 is the inhibition radius of the bacterial growth and r2 is the inhibition radius for growth as well as the release of the pigment.
The anti-QS inefficiency was evaluated using the previous technique mentioned in the literature.
The culture was prepared by growing Ch. violaceum ATCC 12472 in LB broth and incubated for 16–18 h in an orbital incubator running at 28°C and 150 rpm. The culture was then adjusted to 0.5 McFarland standard (ca. 1 × 10^6 CFU/mL). Ch. violaceum (50 µL) was inoculated into LB agar (50 mL), poured into plates, and solidified. Wells were made in LB agar medium using cork borer. The tested compounds were dissolved in DMSO 100% in Eppendorf tubes for final concentration of 5 mg/mL, and 50 µL of the test solution was applied into the wells. The positive control (catechin) was also added at the same concentration and volume to each plate. In addition, DMSO (control solvent) was added to each plate. […] Bacterial growth inhibition by the tested compounds was measured as radius (r1) in mm, while both growth and pigment inhibition was measured as radius (r2) in mm. The pigment inhibition (QS inhibition) was determined by subtracting bacterial growth inhibition (r1) from the total radius (r2); thus, QS inhibition = (r2 - r1) in mm.

[6] = MTT cytotoxicity assay on normal cells; settings: human, WI38 normal fibroblast cells
Description: The cytotoxicity of the prepared tri-and tetra-cyclic thiadiazolopyrimidine compounds were examined toward various cancer cell lines, such as liver and breast cancer (MCF-7), prostate cancer (PC3), laryngeal carcinoma (Hep-2), carcinoma (HepG2), and standard normal fibroblast cells (WI38) using the MTT assay[33] at the National Research Centre (Egypt). The cytotoxicity (Table 3) toward 50% inhibition of the cell viability (IC50 values) was assessed using 5-fluorouracil (5-Fu) as the standard anticancer drug.
The synthesized compounds were subjected to the MTT cytotoxicity assay on the basis of the cited literature.
MTT cytotoxicity assay: The technical method of MTT assay depends on the reduction of yellow 3-(4,5-methyl-2-thiazolyl)-2,5-diphenyl-2H-tetrazolium bromide (MTT) into purple formazan product, mainly by mitochondrial reductase activity inside the living cells. The cells used in cytotoxicity assay were cultured in RPMI 1640 medium supplemented with 10% fetal calf serum. Cells suspended in the medium (2×10^4 cells/mL) were plated in 96-well culture plates and incubated at 37 °C in a 5% CO2 incubator for 12 hours. The tested sample (2 μL) was added to the cells (2×10^4) in 96-well plates and cultured at 37 °C for 3 days. The cultured cells were mixed with 20 μL of MTT solution and incubated for 4 hours at 37 °C. The supernatant was carefully removed from each well, the formazan crystals were dissolved after addition of DMSO (100 μL) for each well to form the cellular reduction of MTT. After mixing with a mechanical plate mixer, the absorbance of each well was measured by a microplate reader using a test wavelength of 570 nm. The results were expressed as the IC50 values, which inducing 50% inhibition of cell growth of the treated cells when compared to the growth of control cells.

| SMILES | MIC (Bacillus cereus UW85) [µg/mL] | MIC [1] [µg/mL] | MIC [2] [µg/mL] | MIC [3] [µg/mL] | MIC [4] [µg/mL] | MIC (Candida albicans) [µg/mL] | zone of inhibition at 5000 µg/mL [5] [mm] | IC50 at 3 days [6] [µM] |
| --- | --- | --- | --- | --- | --- | --- | --- | --- |
| Nc1c2c(=O)nc3scnn3c2nc2nnnn12 [Compound 11, 6-Amino-5H-[1,3,4]thiadiazolo[2′,3′:2,3]pyrimido[4,5-d]tetrazolo[1,5-a]pyrimidin-5-one] | 1250 (≈ 4.79 mM) | > 1250 | 1250 (≈ 4.79 mM) | 312 (≈ 1.2 mM) | > 1250 | 1250 (≈ 4.79 mM) | 5 | 20.2 ± 0.39 |
| Nc1n[nH]c2c1c(=O)nc1scnn12 [Compound 4, 3-Aminopyrazolo[4,3-e][1,3,4]thiadiazolo[3,2-a]pyrimidin-4(1H)-one] | > 1250 | > 1250 | > 1250 | 1250 (≈ 6 mM) | > 1250 | > 1250 | < 2 | 9.35 ± 0.21 |
| CCOC(=O)c1c(N)nc(N)c2c(=O)nc3scnn3c12 [Compound 7, Ethyl 6,8-diamino-5-oxo-5H-pyrido[3,4-e][1,3,4]thiadiazolo[3,2-a]pyrimidine-9-carboxylate] | 1250 (≈ 4.08 mM) | 625 (≈ 2.04 mM) | 1250 (≈ 4.08 mM) | 1250 (≈ 4.08 mM) | > 1250 | > 1250 | < 2 | 43.8 ± 0.52 |
| CC1=C(C#N)C2C(=C(N)O1)C(=O)N=C1SC=NN12 (centres unmarked) [Compound 9a, 6-Amino-9-cyano-8-methyl-5-oxo-5H,9aH-pyrano[3,4-e][1,3,4]thiadiazolo[3,2-a]pyrimidine] | 312 (≈ 1.2 mM) | 625 (≈ 2.39 mM) | 625 (≈ 2.39 mM) | 312 (≈ 1.2 mM) | > 1250 | 312 (≈ 1.2 mM) | 11 | 36.12 ± 0.28 |
| Cc1ccc(N=Nc2c(N)nn3c(N)c4c(=O)nc5scnn5c4nc23)cc1 [Compound 16a, 6,9-Diamino-10-(4-methylphenylazo)-5H-pyrazolo[1′,5′:1,2]pyrimido[5,4-e][1,3,4]thiadiazolo[3,2-a]pyrimidin-5-one] | > 1250 | 78 (≈ 0.199 mM) | 156 (≈ 0.398 mM) | 1250 (≈ 3.19 mM) | > 1250 | > 1250 | 9 | 60.1 ± 2.41 |
| N#Cc1c(N)nc(N)c2c(=O)nc3scnn3c12 [Compound 6, 6,8-Diamino-9-cyano-5-oxo-5H-pyrido[3,4-e][1,3,4]thiadiazolo[3,2-a]pyrimidine] | 1250 (≈ 4.82 mM) | > 1250 | 1250 (≈ 4.82 mM) | > 1250 | > 1250 | > 1250 | < 2 | 14.1 ± 0.36 |
| Cc1ccc(N=Nc2c(O)nn3c(N)c4c(=O)nc5scnn5c4nc23)cc1 [Compound 17a, 6-Amino-9-hydroxy-10-(4-methylphenylazo)-5H-pyrazolo[1′,5′:1,2]pyrimido[5,4-e][1,3,4]thiadiazolo[3,2-a]pyrimidin-5-one] | 625 (≈ 1.59 mM) | 156 (≈ 0.397 mM) | 156 (≈ 0.397 mM) | 625 (≈ 1.59 mM) | 1250 (≈ 3.18 mM) | > 1250 | 11 | 57.9 ± 1.18 |
| CC(=O)C1=C(C)OC(N)=C2C(=O)N=C3SC=NN3C12 (centres unmarked) [Compound 8a, 9-Acetyl-6-amino-8-methyl-5H,9aH-pyrano[3,4-e][1,3,4]thiadiazolo[3,2-a]pyrimidin-5-one] | 625 (≈ 2.25 mM) | 1250 (≈ 4.49 mM) | 1250 (≈ 4.49 mM) | 312 (≈ 1.12 mM) | > 1250 | 312 (≈ 1.12 mM) | 3 | 27.5 ± 0.6 |
| Nc1nn(-c2ccccc2)c2c1c(=O)nc1scnn12 [Compound 5, 3-Amino-1-phenylpyrazolo[4,3-e][1,3,4]thiadiazolo[3,2-a]pyrimidin-4(1H)-one] | 625 (≈ 2.2 mM) | 1250 (≈ 4.4 mM) | 1250 (≈ 4.4 mM) | 625 (≈ 2.2 mM) | > 1250 | 1250 (≈ 4.4 mM) | < 2 | 10.9 ± 0.83 |
| Cc1cc2nc3c(c(N)n2n1)c(=O)nc1scnn13 [Compound 13, 6-Amino-9-methyl-5H-pyrazolo[1′,5′:1,2]pyrimido[5,4-e][1,3,4]thiadiazolo[3,2-a]pyrimidin-5-one] | > 1250 | 1250 (≈ 4.57 mM) | > 1250 | 1250 (≈ 4.57 mM) | > 1250 | 1250 (≈ 4.57 mM) | 5 | 44.4 ± 1.24 |
